# Counter-ions that a name gives are not always drawn.
# Experiments:
# mice [1] = experiment: Anti-Marble Burying Behavior Test in Mice; type: in vivo; settings: Mus musculus, reduction in number of marbles buried, ip
# Excerpt: Marble burying was developed and validated as a pre-clinical assay of potential anxiolytic activity (Andrews and Broekkamp (1993). Procedures to Identify Anxiolytic or Anxiogenic agents. In Behavioural Neuroscience, ed. A Sahgal, pp. 37-54. IRL Press, Oxford). The marble burying test places a naive mouse into a novel environment containing 25 marbles (arranged on top of a sawdust surface). A reduction in the number of marbles buried by the mouse was hypothesized to be an anxiolytic-like effect.
# [2] = target: T1, Serotonin 1A (5-HT1A) receptor (Rattus norvegicus, UniProt P19327); experiment: Serotonin 1A (5-HT1A) receptor inhibition assay, [3H]8-OH-DPAT binding to rat cortex membranes; parameters: species or system Sprague-Dawley (SD) rats; settings: 10 nM test compound; 0.92 nM [3H]8-OH-DPAT; rat cortex homogenate; 60 min at 25° C.
# T1 construct: The cortex tissue were homogenized in 30 volumes of ice-cold 50 mM Tris-HCl buffer; from tissue; host or cells: Sprague-Dawley rat brain cortex membranes
# T1 sequence (P19327 1-422): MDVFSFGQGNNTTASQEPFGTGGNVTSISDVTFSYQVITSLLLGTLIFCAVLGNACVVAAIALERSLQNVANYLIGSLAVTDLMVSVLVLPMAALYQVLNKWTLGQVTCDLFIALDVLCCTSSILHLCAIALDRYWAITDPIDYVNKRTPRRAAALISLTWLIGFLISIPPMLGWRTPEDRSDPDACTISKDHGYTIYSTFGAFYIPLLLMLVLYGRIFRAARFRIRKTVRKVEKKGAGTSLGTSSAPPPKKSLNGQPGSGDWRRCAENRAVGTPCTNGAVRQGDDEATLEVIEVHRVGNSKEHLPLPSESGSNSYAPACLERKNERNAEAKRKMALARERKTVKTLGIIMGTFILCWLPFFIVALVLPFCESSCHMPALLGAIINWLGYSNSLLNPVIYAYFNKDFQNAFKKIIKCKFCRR
# Method: The method to test the ability of compounds to inhibit serotonin 1A(5-HT1A) receptors was using Hall. et al., J Neuro Chem., 1985, 44, p 1685-1696 with modification.
# The Sprague-Dawley (SD) rats were killed by decapitation and their brains rapidly removed at 4° C. The cortex tissue were homogenized in 30 volumes of ice-cold 50 mM Tris-HCl buffer (pH7.4) using an ultra-turrax T8 and centrifuged at 48,000 g for 20 min. The supernatant was discarded and the pellet washed twice by resuspension in 20 volumes Tris-HCl and centrifugation, homogenized in 20 volumes Tris-HCl, and incubated at 37° C. for 10 min. Membranes were than collected by centrifugation and washed twice before final resuspension in 10 volumes of 50 mM Tris-HCl, pH7.4.
# For binding assays, the incubation medium consisted of 162.5 ug of tissue homogenate, 0.92 nM of [3H]8-OH-DPAT and vehicle or 10 uM of 5-HT or 10 nM of test compounds per well. 5-HT and test compounds were dissolved in distilled water and incubation medium was 50 mM Tris(pH7.4 at room temperature). The assay plates (96 well) were incubated for 60 min at 25° C. The reaction was terminated by rapid filtration using a Tomtec harvester, through GF/C glassfibre filter with 5 times washes of Tris buffer. The radioactivity retained on the filters was counted by scintillation spectroscopy (MicroBeta TriLux, Wallac). The tests were triplicates. Percent inhibition was calculated as below equation.
# Total binding is the value of vehicle treated group and specific binding is the values that deduct non-specific binding (i.e. the value of non-specific ligand, 5-HT).
# mice [3] = experiment: Tail Suspension Test in Mice (TST); type: in vivo; settings: Mus musculus, reduction in immobility vs control group, 1 mg/kg, po
# Excerpt: Tail Suspension Test in mice is the well-known animal model to determine antidepressant efficacy of compounds by checking escaping behavior and immobility time of mice. Mice treated with antidepressant drug show escaping behavior continuously comparing with control group.
# The mice were mainly treated orally with the test compound dissolved in 30% PEG400 or with only 30% PEG400 as control. Tail of mouse is suspended to the rod of TST equipment and end of tail is fixed with sticky tape. Suspended mouse is incubated during 2 min for training and adaptation and after following 2 min, observe escaping behavior and check immobility time for 4 min. The potent ability of the compounds was determined as percent value of reduction in immobility comparing to control group as 100% baseline.
compound,measurement,setting,value
"O=C1CC2(CCCC2)CC(=O)N1CCCCN1CCN(c2ncccn2)CC1 [Buspirone, reference compound]",inhibition in vivo at 20 mg/kg,mice [1]; 20 mg/kg,56%
"COc1ccccc1N1CCN(CCCCOc2ccc(Cn3ccnc3)cc2)CC1 [Example 1, 1-[4-(4-imidazol-1-ylmethyl-phenoxy)-butyl]-4-(2-methoxy-phenyl)-piperazine]",inhibition at 0.01 µM,[2],83.1%
same,inhibition in vivo at 3 mg/kg,mice [1],28.7%
"COc1ccccc1N1CCN(CCCCOc2ccc(Cn3cncn3)cc2)CC1 [Example 2, 1-(2-methoxy-phenyl)-4-[4-(4-[1,2,4]triazol-1-ylmethyl-phenoxy)-butyl]-piperazine]",inhibition at 0.01 µM,[2],80.3%
same,inhibition in vivo at 3 mg/kg,mice [1],93.3%
"COc1ccccc1N1CCN(CCCCOc2cccc(Cn3ccnc3)c2)CC1 [Example 5, 1-[4-(3-imidazol-1-ylmethyl-phenoxy)-butyl]-4-(2-methoxy-phenyl)-piperazine-hydrochloride]",inhibition in vivo at 1 mg/kg,mice [3],21.2%
same,inhibition at 0.01 µM,[2],50.7%
same,inhibition in vivo at 7.5 mg/kg,mice [1],60.3%
"COc1ccccc1N1CCN(CCCCOc2cccc(Cn3cnnn3)c2)CC1 [Example 7, 1-(2-methoxy-phenyl)-4-[4-(3-tetrazol-1-ylmethyl-phenoxy)-butyl]-piperazine hydrochloride]",inhibition in vivo at 1 mg/kg,mice [3],21.1%
same,inhibition at 0.01 µM,[2],78.4%
same,inhibition in vivo at 7.5 mg/kg,mice [1],61.1%
"COc1ccccc1N1CCN(CCCCOc2ccc(Cn3nccn3)cc2)CC1 [Example 11, 1-(2-methoxy-phenyl)-4-[4-(4-[1,2,3]triazol-2-ylmethyl-phenoxy)-butyl]-piperazine]",inhibition in vivo at 1 mg/kg,mice [3],25%
same,inhibition at 0.01 µM,[2],61.8%
same,inhibition in vivo at 7.5 mg/kg,mice [1],69%
"COc1ccccc1N1CCN(CCCCOc2ccc(Cn3ccnn3)cc2)CC1 [Example 12, 1-(2-methoxy-phenyl)-4-[4-(4-[1,2,3]triazol-1-ylmethyl-phenoxy)-butyl]-piperazine]",inhibition in vivo at 1 mg/kg,mice [3],12.7%
same,inhibition at 0.01 µM,[2],60.9%
same,inhibition in vivo at 3 mg/kg,mice [1],97.3%
"COc1ccccc1N1CCN(CCCCOc2ccc(CN(C)C)cc2)CC1 [Example 19, (4-{4-[4-(2-methoxy-phenyl)-piperazin-1-yl]-butoxy}-benzyl)-dimethyl-amine dihydrochloride]",inhibition in vivo at 1 mg/kg,mice [3],50.6%
same,inhibition at 0.01 µM,[2],59.6%
same,inhibition in vivo at 7.5 mg/kg,mice [1],50.8%
"COc1ccccc1N1CCN(CCCCOc2ccc(CN3CCCCC3)cc2)CC1 [Example 20, 1-(2-methoxy-phenyl)-4-[4-(4-piperidin-1-ylmethyl-phenoxy)-butyl]-piperazine]",inhibition at 0.01 µM,[2],68.5%
same,inhibition in vivo at 7.5 mg/kg,mice [1],27%
"COc1ccccc1N1CCN(CCCCOc2ccc(CNc3ccccc3)cc2)CC1 [Example 21, (4-{4-[4-(2-methoxy-phenyl)-piperazin-1-yl]-butoxy}-benzyl)-phenyl-amine]",inhibition at 0.01 µM,[2],38.2%
same,inhibition in vivo at 3 mg/kg,mice [1],29.9%
"COc1ccccc1N1CCN(CCCCOc2cccc(Cn3nccn3)c2)CC1 [Example 24, 1-(2-methoxy-phenyl)-4-[4-(3-[1,2,3]triazol-2-ylmethyl-phenoxy)-butyl]-piperazine]",inhibition at 0.01 µM,[2],51.6%
same,inhibition in vivo at 3 mg/kg,mice [1],62.6%
"COc1ccccc1N1CCN(CCCCOc2cccc(CN(C)C)c2)CC1 [Example 28, (3-{4-[4-(2-methoxy-phenyl)-piperazin-1-yl]-butoxy}-benzyl)-dimethyl-amine]",inhibition at 0.01 µM,[2],13.5%
same,inhibition in vivo at 3 mg/kg,mice [1],24.6%
"COc1ccccc1N1CCN(CCCCOc2ccc(CN3CCOCC3)cc2)CC1 [Example 32, 4-(4-{4-[4-(2-methoxy-phenyl)-piperazin-1-yl]-butoxy}-benzyl)-morpholine]",inhibition in vivo at 7.5 mg/kg,mice [1],27.8%
"CN(C)Cc1ccc(OCCCCN2CCN(c3ccccc3Cl)CC2)cc1 [Example 33, (4-{4-[4-(2-Chloro-phenyl)-piperazin-1-yl]-butoxy}-benzyl)-dimethyl-amine]",inhibition in vivo at 1 mg/kg,mice [3],26.8%
same,inhibition at 0.01 µM,[2],53.7%
"Clc1cccc(N2CCN(CCCCOc3ccc(Cn4ncnn4)cc3)CC2)c1Cl [Example 36, 1-(2,3-dichloro-phenyl)-4-[4-(4-tetrazol-2-ylmethyl-phenoxy)-butyl]-piperazine]",inhibition at 0.01 µM,[2],28.1%
same,inhibition in vivo at 3 mg/kg,mice [1],25.3%
"CN(C)Cc1ccc(OCCCCN2CCN(c3cccc(Cl)c3Cl)CC2)cc1 [Example 39, (4-{4-[4-(2,3-dichloro-phenyl)-piperazin-1-yl]-butoxy}-benzyl)-dimethyl-amine]",inhibition in vivo at 1 mg/kg,mice [3],30.4%
same,inhibition at 0.01 µM,[2],52.9%
"Clc1cccc(N2CCN(CCCCOc3ccc(CN4CCOCC4)cc3)CC2)c1Cl [Example 40, 4-(4-{4-[4-(2,3-Dichloro-phenyl)-piperazin-1-yl]-butoxy}-benzyl)-morpholine]",inhibition in vivo at 1 mg/kg,mice [3],10.6%
same,inhibition at 0.01 µM,[2],45.6%
CN1CCN(Cc2ccc(OCCCCN3CCN(c4cccc(Cl)c4Cl)CC3)cc2)CC1 [Example 41],inhibition in vivo at 1 mg/kg,mice [3],14.1%
same,inhibition at 0.01 µM,[2],82.1%
"COc1ccccc1N1CCN(CCCCOc2ccc(CCn3ccnc3)cc2)CC1 [Example 47, 1-{4-[4-(2-imidazol-1-yl-ethyl)-phenoxy]-butyl}-4-(2-methoxy-phenyl)-piperazine]",inhibition at 0.01 µM,[2],70%
same,inhibition in vivo at 3 mg/kg,mice [1],39.3%
"COc1ccccc1N1CCN(CCCCOc2ccc(CCn3cncn3)cc2)CC1 [Example 48, 1-(2-methoxy-phenyl)-4-{4-[4-(2-[1,2,4]triazol-1-yl-ethyl)-phenoxy]-butyl}-piperazine]",inhibition in vivo at 1 mg/kg,mice [3],26.2%
same,inhibition at 0.01 µM,[2],48%
same,inhibition in vivo at 3 mg/kg,mice [1],31.3%
"COc1ccccc1N1CCN(CCCCOc2ccc(CCn3nccn3)cc2)CC1 [Example 49, 1-(2-methoxy-phenyl)-4-{4-[4-(2-[1,2,3]triazol-2-yl-ethyl)-phenoxy]-butyl}-piperazine]",inhibition in vivo at 1 mg/kg,mice [3],34.3%
same,inhibition at 0.01 µM,[2],45%
"COc1ccccc1N1CCN(CCCCOc2ccc(CCn3ccnn3)cc2)CC1 [Example 50, 1-(2-methoxy-phenyl)-4-{4-[4-(2-[1,2,3]triazol-1-yl-ethyl)-phenoxy]-butyl}-piperazine]",inhibition in vivo at 1 mg/kg,mice [3],46.9%
same,inhibition at 0.01 µM,[2],51%
same,inhibition in vivo at 7.5 mg/kg,mice [1],96.8%
"COc1ccccc1N1CCN(CCCCOc2ccc(CCn3ncnn3)cc2)CC1 [Example 51, 1-(2-methoxy-phenyl)-4-{4-[4-(2-tetrazol-2-yl-ethyl)-phenoxy]-butyl}-piperazine]",inhibition in vivo at 1 mg/kg,mice [3],14.7%
same,inhibition at 0.01 µM,[2],47%
same,inhibition in vivo at 7.5 mg/kg,mice [1],44.4%
"COc1ccccc1N1CCN(CCCCOc2ccc(CCn3cnnn3)cc2)CC1 [Example 52, 1-(2-methoxy-phenyl)-4-{4-[4-(2-tetrazol-1-yl-ethyl)-phenoxy]-butyl}-piperazine]",inhibition in vivo at 1 mg/kg,mice [3],26.4%
same,inhibition at 0.01 µM,[2],62%
"COc1ccccc1N1CCN(CCCCOc2ccc(CCn3nnc(C)n3)cc2)CC1 [Example 54, 1-(2-Methoxy-phenyl)-4-(4-{4-[2-(5-methyl-tetrazol-2-yl)-ethyl]-phenoxy}-butyl)-piperazine]",inhibition in vivo at 1 mg/kg,mice [3],31.8%
same,inhibition at 0.01 µM,[2],71%

# Reference: patent US8772299B2, “Phenyl piperazine compounds, pharmaceutical composition including the same and use thereof” (SK Biopharmaceuticals Co., Ltd., priority 2008, dated 2014)
